Type in all cases: biochemical
The target of one assay is T1, human Lys-plasmin (Homo sapiens, UniProt P00747).
T1 construct: purchased Haematologic Technologies (Essex Junction, VT, USA)
Put plainly: Direct inhibition of human Lys-plasmin, chromogenic substrate (Spectrozyme PL) hydrolysis assay. The settings on record: for IC50: human plasmin 20 nM, 50 mM Tris-HCl pH 7.4, 150 mM NaCl, 37 °C, Spectrozyme PL; for HS (Hill slope): logistic fit. On the procedure: Important to emphasize here that the potency of NSGM-based inhibitors was evaluated by measuring their IC50's (X-axis), whereas the efficacy was assessed by measuring the overall change in residual plasmin activity (%) (ΔY = YM − Y0) (Y-axis).
Direct inhibition of human Lys-plasmin was measured using a chromogenic substrate hydrolysis assay on a microplate reader (FlexStation III, Molecular Devices, Sunnyvale, CA, USA), as reported earlier. Briefly, to each well of a 96-well microplate containing 85 µL of 50 mM Tris-HCl buffer, pH 7.4, containing 150 mM NaCl, 0.1% PEG8000, and 0.02% Tween80 at 37 °C was added 5 µL potential NSGM-based inhibitor (20–100 mM aqueous solution) (or vehicle alone) and 5 µL enzyme. The final concentration of the enzyme was 20 nM. After 5 min incubation, 5 µL of 1 mM Spectrozyme PL was rapidly added and the residual enzyme activity was measured from the initial rate of increase in A405. Relative residual enzyme activity (Y) as a function of the concentration of sulfated molecule was fitted using logistic equation 1 to obtain the potency (IC50), efficacy (ΔY) and Hill slope (HS) of inhibition. In this equation, YM and Y0 are the maximal and minimal values of Y: (1) Y = Y0+YM−Y0/1+10^(log[Inhibitor]0 − logIC50) ×HS […]
In this equation, Y is the ratio of residual plasmin activity in the presence of inhibitor to that in its absence (fractional residual activity). YM and Y0 are the maximum and minimum possible values of the fractional residual proteinase activity. The difference between these two values is used to evaluate the inhibitor’s efficacy to reduce the residual enzyme activity under the assay condition.
Direct inhibition of human plasmin by sulfated small molecules. Direct inhibition of plasmin was measured using a chromogenic substrate hydrolysis assay on a microplate reader (FlexStation III, Molecular Devices), as reported earlier. Briefly, to each well of a 96-well microplate containing […]
Tween80 at 37 °C was added 5 µL potential inhibitor (or vehicle alone) and 5 µL enzyme. The final concentration of the enzyme was 20 nM. After 5 min incubation, 5 µL of 1 mM Spectrozyme PL was rapidly added and the residual enzyme activity was measured from the initial rate of increase in A405.
Relative residual enzyme activity (Y, activity in the presence of inhibitor to that in its absence) as a function of the concentration of SPGG derivative was fitted using logistic Equation (1) to obtain the potency (IC50), efficacy (ΔY) and Hill slope (HS) of inhibition. In this equation, YM and Y0 are the maximal and minimal values of Y.

A further assay has as its target T2, human plasmin (Homo sapiens, UniProt P00747).
T2 construct: purchased Haematologic Technologies (Essex Junction, VT, USA)
Put plainly: Michaelis-Menten kinetics of Spectrozyme PL hydrolysis by human plasmin in presence of inhibitor. The settings on record: for mechanism of plasmin inhibition: Michaelis-Menten kinetics, pH 7.4, 37 °C. The procedure:
The initial rate of Spectrozyme PL hydrolysis by human plasmin (20 nM) was monitored from the linear increase in absorbance at 405 nm corresponding to less than 10% consumption of the substrate. […] The data were fitted by Michaelis-Menten Equation (2) to determine KM,app and VMAX: (2) V= VMAX [S]/KM+ [S] […]
Michaelis-Menten kinetics of Spectrozyme PL hydrolysis by plasmin in the presence of […]
The initial rate of Spectrozyme PL hydrolysis by human plasmin (20 nM) was monitored from the linear increase in absorbance at 405 nm corresponding to less than 10% consumption of the substrate. The initial rate was measured as a function of various concentrations of the substrate (0–400 μM) […]
50 mM Tris-HCl buffer, pH 7.4, 150 mM NaCl at 37 °C. The data were fitted by Michaelis-Menten Equation (2) to determine KM,app and VMAX. […]

The target of another assay is thrombin (Homo sapiens, UniProt P00734). The experiment in a line: Direct inhibition of thrombin, chromogenic substrate (Spectrozyme TH) hydrolysis assay. The conditions noted are these: pH 7.4, 37 °C; read-out: IC50 against thrombin. The procedure: (§1) The rationale behind targeting an allosteric site on plasmin was to achieve inhibition specificity over the closely related serine proteases. In contrast to active sites, allosteric sites are not as highly conserved and therefore present a powerful opportunity for discovering a selective modulator of enzyme function. […] Using appropriate small peptide-based chromogenic substrates, the fractional residual thrombin and factor Xa activities were measured under the physiological condition of pH 7.4 and 37 °C.
(§2) Briefly, to each well of a 96-well microplate containing 185 μL of 20–50 mM Tris-HCl buffer, pH 7.4, containing 100–150 mM NaCl, 0.1% PEG8000 and 0.02% Tween80 at either 25 °C (thrombin) or 37 °C (factor Xa) was added 5 μL of 10–20 mM inhibitor (or vehicle) and 5 μL of the enzyme. The final concentrations of the enzymes were 6 nM (thrombin) and 1.09 nM (factor Xa). After 10 min incubation, 5 μL 1.0 mM Spectrozyme TH or 2.5 mM Spectrozyme FXa, was rapidly added and the residual enzyme activity was measured from the initial rate of increase in A405. Relative residual enzyme activity (Y, activity in the presence of inhibitor to that in its absence) as a function of the concentration of inhibitor was measured.

The target of the next assay is factor Xa (Homo sapiens, UniProt P00742). The experiment in a line: Direct inhibition of factor Xa, chromogenic substrate (Spectrozyme FXa) hydrolysis assay. The settings on record: for IC50: pH 7.4, 37 °C, read-out: IC50 against factor Xa. On the procedure: as §1, §2
Chain of factor Xa (P00742 235-488 limits assumed): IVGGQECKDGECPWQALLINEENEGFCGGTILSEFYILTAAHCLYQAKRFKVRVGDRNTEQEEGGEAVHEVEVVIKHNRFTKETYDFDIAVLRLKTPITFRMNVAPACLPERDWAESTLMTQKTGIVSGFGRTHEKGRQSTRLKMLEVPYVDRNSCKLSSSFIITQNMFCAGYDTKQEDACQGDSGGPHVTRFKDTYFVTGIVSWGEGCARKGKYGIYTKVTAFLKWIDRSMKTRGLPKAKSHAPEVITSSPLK
Chain of factor Xa (P00742 41-179 partner limits assumed): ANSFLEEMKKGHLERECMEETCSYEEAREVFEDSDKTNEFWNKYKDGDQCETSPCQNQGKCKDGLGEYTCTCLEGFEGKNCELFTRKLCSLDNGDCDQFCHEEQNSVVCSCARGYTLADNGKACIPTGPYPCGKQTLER

Entries after “also recorded” stand apart in the source; their conditions may differ. Read-outs that look alike come from different tables or passages of the source. A value given as a limit tells only on which side of the number the result lay.

These results are taken from article PMC6272155, “Plasmin Regulation through Allosteric, Sulfated, Small Molecules” (Molecules, 2015).

T1 sequence (P00747 581-810 limits assumed): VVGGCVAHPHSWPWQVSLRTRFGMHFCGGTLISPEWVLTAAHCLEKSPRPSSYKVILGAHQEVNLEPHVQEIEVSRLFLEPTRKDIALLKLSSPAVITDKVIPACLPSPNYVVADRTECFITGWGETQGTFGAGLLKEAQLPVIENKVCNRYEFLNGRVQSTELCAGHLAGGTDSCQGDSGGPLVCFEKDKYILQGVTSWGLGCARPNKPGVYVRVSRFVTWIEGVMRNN
T1 sequence (P00747 97-580 partner limits assumed): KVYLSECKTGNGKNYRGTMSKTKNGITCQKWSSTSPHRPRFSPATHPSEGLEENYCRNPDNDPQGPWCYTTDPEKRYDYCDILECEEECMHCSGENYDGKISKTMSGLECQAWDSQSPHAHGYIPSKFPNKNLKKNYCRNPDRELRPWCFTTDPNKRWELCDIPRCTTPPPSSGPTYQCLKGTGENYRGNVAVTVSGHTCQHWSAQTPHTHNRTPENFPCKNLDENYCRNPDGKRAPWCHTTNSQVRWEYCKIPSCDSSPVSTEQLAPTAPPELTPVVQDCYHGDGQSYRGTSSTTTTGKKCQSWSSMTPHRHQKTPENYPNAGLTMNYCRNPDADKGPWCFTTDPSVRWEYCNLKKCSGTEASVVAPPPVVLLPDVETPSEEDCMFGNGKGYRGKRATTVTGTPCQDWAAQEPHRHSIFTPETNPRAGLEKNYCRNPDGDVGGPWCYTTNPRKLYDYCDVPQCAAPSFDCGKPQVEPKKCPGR
T2 sequence (P00747 581-810 limits assumed): as the sequence (P00747 581-810 limits assumed) above
T2 sequence (P00747 97-580 partner limits assumed): as the sequence (P00747 97-580 partner limits assumed) above

For orientation: IC50 means the point on the concentration scale where inhibition reaches its midpoint. Take `O=c1c(OS(=O)(=O)O)c(-c2ccc(OS(=O)(=O)O)c(OS(=O)(=O)O)c2)oc2cc(OS(=O)(=O)O)cc(OCCCCOc3cc(OS(=O)(=O)O)cc4oc(-c5ccc(OS(=O)(=O)O)c(OS(=O)(=O)O)c5)c(OS(=O)(=O)O)c(=O)c34)c12` [compound 52, 5,5'-(Butane-1,4-diylbis(oxy))bis(2-(3,4-O,O-disulfonato-phenyl)-3,7-O,O-disulfonato-4H-chromen-4-one)]: the IC50 was 76 ± 12 µM against human Lys-plasmin, more than 500 µM on thrombin and more than 250 µM on factor Xa. Further, the “HS (Hill slope)” value on human Lys-plasmin (pH 7.4, 37 °C) was determined as 1.0 ± 0.2. Moreover, the Emax on human Lys-plasmin (pH 7.4, logistic fit, pH 7.4, 37 °C, read-out: ΔY% (efficacy, YM − Y0)) worked out at 72%. Also, on human plasmin, the “mechanism of plasmin inhibition” value is on record as “uncompetitive inhibition”. Further, the “decrease in KM relative to absence of inhibitor” value at human plasmin (inhibitor 0 to 150 μM) is reported as “approximately 3.5 fold”. The “VMAX of Spectrozyme PL hydrolysis” value came out at 52.9 ± 2.9 mAU/min on human plasmin (inhibitor 15 μM), 37.0 ± 1.5 mAU/min on human plasmin (inhibitor 30 μM), 34.8 ± 1.5 mAU/min at human plasmin (inhibitor 75 μM) and 26.4 ± 0.8 mAU/min at human plasmin (inhibitor 150 μM). The “selectivity index for plasmin over factor Xa” value at factor Xa is “about 5 fold”.

On to `O=c1c(OS(=O)(=O)O)c(-c2ccc(OS(=O)(=O)O)c(OS(=O)(=O)O)c2)oc2cc(OS(=O)(=O)O)cc(OCc3cn(CCCCCCCCn4c(-c5ccc(OS(=O)(=O)O)cc5)nc5ccccc5c4=O)nn3)c12` [compound 32, 3-(8-(4-((2-(3,4-O,O-Disulfonato-phenyl)-3,7-O,O-disulfonato-4-oxo-4H-chromen-5-yloxy)methyl)-1H-1,2,3-triazol-1-yl)octyl)-2-(4-O-sulfonato-phenyl)quinazolin-4(3H)-one], for which the results for the IC50 at human Lys-plasmin, on thrombin and on factor Xa were 45 ± 2 µM, more than 500 µM and more than 250 µM, respectively. On human Lys-plasmin (pH 7.4, 37 °C), the “HS (Hill slope)” value is on record as 2.3 ± 0.7. The Emax at human Lys-plasmin (pH 7.4, read-out: ΔY% (efficacy, YM − Y0), logistic fit, pH 7.4, 37 °C) is 105%. The “mechanism of plasmin inhibition” value at human plasmin is “noncompetitive inhibition; also recorded: allosteric inhibitor”. For the same molecule, at human plasmin (inhibitor 0 to 250 μM), the “decrease in VMAX” value stood at 5.5 fold. Moreover, the “VMAX of Spectrozyme PL hydrolysis” value was 65.8 ± 2.1 mAU/min on human plasmin (inhibitor 1 μM); 56.4 ± 2.3 mAU/min at human plasmin (inhibitor 10 μM); 41.4 ± 1.6 mAU/min at human plasmin (inhibitor 50 μM); 20.7 ± 1.1 mAU/min at human plasmin (inhibitor 150 μM); 12.5 ± 1.3 mAU/min at human plasmin (inhibitor 250 μM). Further, the “selectivity index for plasmin over factor Xa” value at factor Xa was “about 5 fold”.
